# Laboratory results reported in patent US12114987B2, “Perception loss detection” (OXFORD UNIVERSITY INNOVATION LIMITED, priority 2012, dated 2024).
# Test system: slow wave oscillations in the scalp electroencephalogram
# Description: Multiple electrodes, including Magnetic Resonance (hereinafter “MR”) compatible 32 channel electroencephalography (hereinafter “EEG”) caps (BrainCap MR, Easycap GmbH, Herrsching, Germany) are used in the illustrated example for EEG acquisition.
# Amplifiers are connected in the illustrated example using MR-safe fibre optic cables to a universal serial bus (USB) adaptor and then to a laptop computer (or other recording and EEG processing medium), which includes the processor 18 and the database 19. The laptop simultaneously records the timings of fMRI volumes (gradient onset markers), stimuli and button presses. For the paradigm in FIG. 5, samples of the electrical signals are acquired at 5000 Hz and initially referenced to channel CPz. The amplification hardware imposes a highpass filter of 0.1 Hz and a lowpass filter of 250 Hz on acquisition. The acquisition software applies a highpass filter of 0.5 Hz and a lowpass filter of 70 Hz as well as a notch filter of 50 Hz. […]
# For time-frequency analysis, the frequency power spectrum over time within the 0.5-30 Hz range is calculated using a multitaper spectral analysis (using Chronux®) with window size=3 s and step size=4s. Phasic changes in EEG absolute and relative power in the specific frequency bands of interest, i.e. beta (15-30 Hz), alpha (9-14 Hz), theta (4-8 Hz) and slow wave (0.5-1.5 Hz) bands, are calculated. […]
structure (smiles),measurement,setting,value
CC(C)c1cccc(C(C)C)c1O [propofol],"peak absolute power of slow wave oscillations (0.5-1.5 Hz band), range between subjects","16 subjects, gradual propofol administration, peak propofol level 4.0 mcg ml−1, scalp EEG",10.84-83.78 μV2
same,activity of slow wave oscillations in the scalp electroencephalogram with increasing doses,"after the human has lost verbal responsiveness, increasing doses of propofol",reaches a maximum or saturation point
